In patent publication US20170283804A1, “ANTISENSE COMPOUNDS AND USES THEREOF” (Ionis Pharmaceuticals, Inc., priority 2014, published 2017):
Oligonucleotides are written 5' to 3', each unit as a sugar letter and its base; * is a phosphorothioate linkage, no mark a phosphodiester; rarer units and linkages stand in square brackets, end groups in braces. Plain capitals give the bases only. e = 2'-O-(2-methoxyethyl) (MOE); k = constrained ethyl (cEt); [5mC] = 5-methylcytosine; d = 2'-deoxy (DNA)

Legend:
[1] = system: mouse Scavenger Receptor Class B, Number 1 (SRB-1) transcript; assay: Isis No. 353382 activity in MHT cells with or without bioactive lipid pre-treatment (SRB-1 mRNA, real-time PCR); type: cell-based
Text: Antisense oligonucleotides were synthesized using standard solid phase oligonucleotide synthetic methods. Isis No. 353382 targets the mouse Scavenger Receptor Class B, Number 1 (SRB-1) transcript (GENBANK accession number NM_016741.1, SEQ ID NO: 1). The sequence of Isis No. 353382 is 5′-[…]-3′ (SEQ ID NO: 2). It is a 5-10-5 MOE gapmer, wherein the five nucleosides at the 5′-end and the five nucleosides at the 3′-end comprise 2′-methoxyethyl (MOE) modifications, and the ten middle nucleosides are 2′-deoxynucleosides. All internucleoside linkages are phosphorothioate linkages. The cytosine bases are 5-methylcytosines.
In order to test the effect of pre-treatment with bioactive lipids on Isis No. 353382 activity in vitro, mouse hepatocellular SV40 large T-antigen (MHT) carcinoma cells were treated with 200 nM myriocin or 3 μM FTY-720 was added 2 hours before Isis No. 353382 at the concentrations shown in Tables 1 and 2 below. Cells were lysed 24 hours following oligonucleotide addition, and total RNA was purified. SRB-1 mRNA levels were determined using real-time PCR and RIBOGREEN® RNA quantification reagent (Molecular Probes, Inc. Eugene, Oreg.) according to standard protocols.

[2] = system: mouse Metastasis associated lung adenocarcinoma transcript 1 (Malat-1); assay: In vivo activity of Isis No. 556062 with and without FTY-720 pre-treatment (Malat-1 RNA in tissues, Example 2); conditions: mice
Text: Isis No. 556062 targets the mouse Metastasis associated lung adenocarcinoma transcript 1 (Malat-1, GENBANK accession number NR_002847.2, SEQ ID NO: 3). The sequence of Isis No. 556062 is 5′-GGCTTAATGCAGCATT-3′ (SEQ ID NO: 4). It is a 3-10-3 (S)-cEt gapmer, wherein the three nucleosides at the 5′-end and the three nucleosides at the 3′-end comprise 2′-O—CH(CH3)-4′ modifications, and the ten middle nucleosides are 2′-deoxynucleosides. All internucleoside linkages are phosphorothioate linkages. The cytosine bases are 5-methylcytosines.
Malat-1 RNA levels were determined using real-time PCR and RIBOGREEN® RNA quantification reagent (Molecular Probes, Inc. Eugene, OR) according to standard protocols. Malat-1 RNA levels were determined relative to total RNA (using Ribogreen), prior to normalization to PBS-treated control. The results are presented in Table 16 as average Malat-1 RNA levels for each treatment group. Results for groups that received Isis No. 556062 alone are relative the group that received only PBS, and results for groups that received Isis No. 556062 and FTY-720 are relative to the group that received 3 mg/kg FTY-720 and PBS in place of Isis No. 556062.

[3] = system: mouse Metastasis associated lung adenocarcinoma transcript 1 (Malat-1); assay: In vivo dose response of Isis No. 556062 with and without FTY-720 pre-treatment (Malat-1 RNA, Example 3); conditions: mice; liver; 1 mg/kg FTY-720 i.p. once a day for 11 days; Isis No. 556062 subcutaneous on day 10
Method: Each treatment group consisted of 4 animals.
Malat-1 RNA levels were determined as described in Example 2. The results are presented in Table 18 as average Malat-1 RNA levels for each treatment group. Results for groups that received Isis No. 556062 alone are relative the group that received only PBS, and results for groups that received Isis No. 556062 and 1 mg/kg FTY-720 are relative to the group that received 1 mg/kg FTY-720 and PBS in place of Isis No. 556062.

Isis No. 353382: 5-10-5 MOE gapmer 5′-GCTTCAGTCATGACTTCCTT-3′ (SEQ ID NO: 2), all phosphorothioate linkages, 5-methylcytosines; targets mouse SRB-1 transcript (antisense eG*e[5mC]*eT*eT*e[5mC]*dA*dG*dT*d[5mC]*dA*dT*dG*dA*d[5mC]*dT*eT*e[5mC]*e[5mC]*eT*eT)
Average SRB-1 mRNA level in cells receiving 200 nM myriocin ([1]; 0.16 nM Isis No. 353382, 200 nM myriocin added 2 hours before, 24 hours): 73.5 % control
Average SRB-1 mRNA level in cells receiving 3 μM FTY-720 ([1]; 0.16 nM Isis No. 353382, 3 μM FTY-720 added 2 hours before, 24 hours): 85.5 % control
Average SRB-1 mRNA level in cells receiving no pre-treatment ([1]; 0.16 nM Isis No. 353382, 24 hours, no pre-treatment): 96.9 % control
Average SRB-1 mRNA level in cells receiving no pre-treatment ([1]; 0.16 nM Isis No. 353382, no pre-treatment, 24 hours): 91.8 % control
Average SRB-1 mRNA level in cells receiving 200 nM myriocin ([1]; 0.64 nM Isis No. 353382, 200 nM myriocin added 2 hours before, 24 hours): 73.2 % control
Average SRB-1 mRNA level in cells receiving 3 μM FTY-720 ([1]; 0.64 nM Isis No. 353382, 3 μM FTY-720 added 2 hours before, 24 hours): 77.8 % control
Average SRB-1 mRNA level in cells receiving no pre-treatment ([1]; 0.64 nM Isis No. 353382, 24 hours, no pre-treatment): 95.9 % control
Average SRB-1 mRNA level in cells receiving no pre-treatment ([1]; 0.64 nM Isis No. 353382, no pre-treatment, 24 hours): 87.8 % control
Average SRB-1 mRNA level in cells receiving 200 nM myriocin ([1]; 3.2 nM Isis No. 353382, 200 nM myriocin added 2 hours before, 24 hours): 46.8 % control
Average SRB-1 mRNA level in cells receiving 3 μM FTY-720 ([1]; 3.2 nM Isis No. 353382, 3 μM FTY-720 added 2 hours before, 24 hours): 65.9 % control
Average SRB-1 mRNA level in cells receiving no pre-treatment ([1]; 3.2 nM Isis No. 353382, 24 hours, no pre-treatment): 72.2 % control
Average SRB-1 mRNA level in cells receiving no pre-treatment ([1]; 3.2 nM Isis No. 353382, no pre-treatment, 24 hours): 80.9 % control
Average SRB-1 mRNA level in cells receiving 200 nM myriocin ([1]; 16 nM Isis No. 353382, 200 nM myriocin added 2 hours before, 24 hours): 36.1 % control
Average SRB-1 mRNA level in cells receiving 3 μM FTY-720 ([1]; 16 nM Isis No. 353382, 3 μM FTY-720 added 2 hours before, 24 hours): 46.5 % control
Average SRB-1 mRNA level in cells receiving no pre-treatment ([1]; 16 nM Isis No. 353382, 24 hours, no pre-treatment): 46.3 % control
Average SRB-1 mRNA level in cells receiving no pre-treatment ([1]; 16 nM Isis No. 353382, no pre-treatment, 24 hours): 74.3 % control
Average SRB-1 mRNA level in cells receiving 200 nM myriocin ([1]; 80 nM Isis No. 353382, 200 nM myriocin added 2 hours before, 24 hours): 27.2 % control
Average SRB-1 mRNA level in cells receiving 3 μM FTY-720 ([1]; 80 nM Isis No. 353382, 3 μM FTY-720 added 2 hours before, 24 hours): 27.1 % control
Average SRB-1 mRNA level in cells receiving no pre-treatment ([1]; 80 nM Isis No. 353382, 24 hours, no pre-treatment): 32.3 % control
Average SRB-1 mRNA level in cells receiving no pre-treatment ([1]; 80 nM Isis No. 353382, no pre-treatment, 24 hours): 53.5 % control
Average SRB-1 mRNA level in cells receiving 200 nM myriocin ([1]; 400 nM Isis No. 353382, 200 nM myriocin added 2 hours before, 24 hours): 23.5 % control
Average SRB-1 mRNA level in cells receiving 3 μM FTY-720 ([1]; 400 nM Isis No. 353382, 3 μM FTY-720 added 2 hours before, 24 hours): 23.6 % control
Average SRB-1 mRNA level in cells receiving no pre-treatment ([1]; 400 nM Isis No. 353382, 24 hours, no pre-treatment): 26.8 % control
Average SRB-1 mRNA level in cells receiving no pre-treatment ([1]; 400 nM Isis No. 353382, no pre-treatment, 24 hours): 52.2 % control
Average SRB-1 mRNA level in cells receiving 200 nM myriocin ([1]; 2,000 nM Isis No. 353382, 200 nM myriocin added 2 hours before, 24 hours): 19.6 % control
Average SRB-1 mRNA level in cells receiving 3 μM FTY-720 ([1]; 2,000 nM Isis No. 353382, 3 μM FTY-720 added 2 hours before, 24 hours): 16.8 % control
Average SRB-1 mRNA level in cells receiving no pre-treatment ([1]; 2,000 nM Isis No. 353382, 24 hours, no pre-treatment): 22.4 % control
Average SRB-1 mRNA level in cells receiving no pre-treatment ([1]; 2,000 nM Isis No. 353382, no pre-treatment, 24 hours): 44.9 % control
Average SRB-1 mRNA level in cells receiving 200 nM myriocin ([1]; 10,000 nM Isis No. 353382, 200 nM myriocin added 2 hours before, 24 hours): 15.6 % control
Average SRB-1 mRNA level in cells receiving 3 μM FTY-720 ([1]; 10,000 nM Isis No. 353382, 3 μM FTY-720 added 2 hours before, 24 hours): 12.1 % control
Average SRB-1 mRNA level in cells receiving no pre-treatment ([1]; 10,000 nM Isis No. 353382, 24 hours, no pre-treatment): 16.6 % control
Average SRB-1 mRNA level in cells receiving no pre-treatment ([1]; 10,000 nM Isis No. 353382, no pre-treatment, 24 hours): 36.0 % control

CCCCCCC(=O)CCCCCC/C=C/C[C@@H](O)[C@H](O)[C@@](N)(CO)C(=O)O [myriocin, reference compound]
Effect of pre-treatment on the effect of Isis No. 353382 in vitro ([1]; 200 nM myriocin 2 hours before Isis No. 353382): potentiated the effect of Isis No. 353382

Isis No. 556062: 3-10-3 (S)-cEt gapmer 5′-GGCTTAATGCAGCATT-3′ (SEQ ID NO: 4), all phosphorothioate linkages, 5-methylcytosines; targets mouse Malat-1 (antisense kG*kG*k[5mC]*dT*dT*dA*dA*dT*dG*d[5mC]*dA*dG*d[5mC]*kA*kT*kT)
Average Malat-1 RNA ([2]; Fat, 2 mg/kg Isis No. 556062 i.p., 0 mg/kg FTY-720): 89 % control
Average Malat-1 RNA ([2]; Fat, 2 mg/kg Isis No. 556062 i.p., 0.3 mg/kg FTY-720 i.p. daily): 54 % control
Average Malat-1 RNA ([2]; Fat, 2 mg/kg Isis No. 556062 i.p., 1 mg/kg FTY-720 i.p. daily): 69 % control
Average Malat-1 RNA ([2]; Fat, 2 mg/kg Isis No. 556062 i.p., 3 mg/kg FTY-720 i.p. daily): 45 % control
Average Malat-1 RNA ([2]; Fat, 10 mg/kg Isis No. 556062 i.p., 0 mg/kg FTY-720): 63 % control
Average Malat-1 RNA ([2]; Fat, 10 mg/kg Isis No. 556062 i.p., 0.3 mg/kg FTY-720 i.p. daily): 39 % control
Average Malat-1 RNA ([2]; Fat, 10 mg/kg Isis No. 556062 i.p., 1 mg/kg FTY-720 i.p. daily): 32 % control
Average Malat-1 RNA ([2]; Fat, 10 mg/kg Isis No. 556062 i.p., 3 mg/kg FTY-720 i.p. daily): 39 % control
Average Malat-1 RNA ([2]; Liver, 2 mg/kg Isis No. 556062 i.p., 0 mg/kg FTY-720): 36 % control
Average Malat-1 RNA ([2]; Liver, 2 mg/kg Isis No. 556062 i.p., 0.3 mg/kg FTY-720 i.p. daily): 30 % control
Average Malat-1 RNA ([2]; Liver, 2 mg/kg Isis No. 556062 i.p., 1 mg/kg FTY-720 i.p. daily): 23 % control
Average Malat-1 RNA ([2]; Liver, 2 mg/kg Isis No. 556062 i.p., 3 mg/kg FTY-720 i.p. daily): 24 % control
Average Malat-1 RNA ([2]; Liver, 10 mg/kg Isis No. 556062 i.p., 0 mg/kg FTY-720): 12 % control
Average Malat-1 RNA ([2]; Liver, 10 mg/kg Isis No. 556062 i.p., 0.3 mg/kg FTY-720 i.p. daily): 9 % control
Average Malat-1 RNA ([2]; Liver, 10 mg/kg Isis No. 556062 i.p., 1 mg/kg FTY-720 i.p. daily): 7 % control
Average Malat-1 RNA ([2]; Liver, 10 mg/kg Isis No. 556062 i.p., 3 mg/kg FTY-720 i.p. daily): 10 % control

CCCCCCCCc1ccc(CCC(N)(CO)CO)cc1 [FTY-720, 2-amino-2-[2-(4-octylphenyl)ethyl]propane-1,3-diol, reference compound]
Effect of pre-treatment on the effect of Isis No. 353382 in vitro ([1]; 3 μM FTY-720 2 hours before Isis No. 353382): potentiated the effect of Isis No. 353382
Effect of pre-treatment on the effect of Isis No. 556062 in vivo ([2]; liver and fat, FTY-720 0.3, 1 or 3 mg/kg i.p. once a day for 11 days, Isis No. 556062 i.p. on day 10): potentiated the effect of Isis No. 556062
Effect of pre-treatment on the effect of Isis No. 556062 in vivo [3]: potentiated the effect of Isis No. 556062
